Source: patent US20240301319A1, “PERFUMING COMPOSITIONS” (FIRMNICH SA, priority 2017, published 2024)
Where a name gives a salt, the structure may show the parent alone. Read-outs that look alike come from different tables or passages of the source.

How the values were obtained:
[1] = Volatility of perfuming compounds (Tables 4 to 10), with top/middle/bottom note type; format: physicochemical
Method in brief: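 Volatility is expressed in μg/l in air. Top notes are 70,000 to 100 μg/l, middle notes 99 to 50 μg/l, and bottom notes 49 to 0.1 μg/l. Compounds are grouped by olfactive family: watery, green, fruity, citrus, sweet, gourmand and woody.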

[2] = Odor threshold and odor value of perfuming compounds (Tables 4 to 10)
[3] = Table 8, perfuming compounds having a sweet note
[4] = Table 8, perfuming compounds having a sweet note, note type by volatility
[5] = Table 6, perfuming compounds having a fruity note
[6] = Table 6, perfuming compounds having a fruity note, note type by volatility
[7] = Table 7, citrus note, top, middle or bottom note
[8] = Table 7, citrus note, equals volatility divided by odor threshold
[9] = note type (Top/Middle/Bottom) by volatility, perfuming compounds having a green note
[10] = perfuming compounds having a green note
[11] = Table 9, perfuming compounds having a gourmand note, note type by volatility

SMILES | Volatility [1, 3] [μg/l air] | Type [1, 4] | Odor Threshold [2, 3] [μg/l air] | Odor Value [2, 3] | Volatility [1, 5] [μg/l air] | Type [1, 6] | further results
O=C1CCCCCCCCCCC(=O)OCCO1 [1,4-dioxacyclohexadecane-5,16-dione] | 0.46 | Bottom | 7.05E−04 | 6.55E+02 | – | – | –
CC(=O)OC(C)CCC=C(C)CCC=C(C)C (stereo not shown) [1,5,9-TRIMETHYL-4,8-DECADIENYL ACETATE] | – | – | – | – | 14.74 | Bottom | Volatility (μg/l air) ([1]; Table 4, watery note): 14.74 μg/l air; Type ([1]; Table 4, watery note, top, middle or bottom note): bottom (perfuming compounds having a volatility ranging from 49 to 0.1 μg/l in air are referred to as “bottom notes”); Odor Threshold (μg/l air) ([2]; Table 4, watery note): 3.28E−04 μg/l air; Odor Value ([2]; Table 4, watery note, equals volatility divided by odor threshold): 4.49E+04; Odor Threshold [2, 5]: 3.28E−04 μg/l air; Odor Value [2, 5]: 4.49E+04
CC(OC=O)C1CCCC(C)(C)C1 (stereo not shown) [1-(3,3-DIMETHYL-1-CYCLOHEXYL)ETHYL FORMATE] | – | – | – | – | – | – | Volatility (μg/l air) ([1]; Table 7, citrus note): 1129.46 μg/l air; Type [1, 7]: Top; Odor Threshold (μg/l air) ([2]; Table 7, citrus note): 2.05E−01 μg/l air; Odor Value [2, 8]: 5.50E+03
COc1ccc(C(C)=O)cc1 [1-(4-METHOXYPHENYL)-1-ETHANONE″] | – | – | – | – | – | – | Type [1, 9]: Middle; Volatility (μg/l air) [1, 10]: 50.21 μg/l air; Odor Threshold (μg/l air) [2, 10]: 1.41E−04 μg/l air
C=CCCC(=O)C1=CCCC(C)(C)C1 [1-(5,5-dimethyl-1-cyclohexen-1-yl)-4-penten-1-one] | – | – | – | – | 38.43 | Bottom | Type [1, 9]: Bottom; Volatility (μg/l air) [1, 10]: 38.43 μg/l air; Odor Threshold [2, 5]: 1.64E−06 μg/l air; Odor Value [2, 5]: 2.34E+07; Odor Threshold (μg/l air) [2, 10]: 1.64E−06 μg/l air
CCCCO [1-BUTANOL] | 17700.00 | Top | 8.70E−02 | 2.03E+05 | – | – | Volatility ([1]; Table 9, gourmand note): 17700.00 μg/l air; Type [1, 11]: Top; Type ([1]; Table 10, perfuming compounds having a woody note, note type by volatility): Top; Volatility ([1]; Table 10, woody note): 17700.00 μg/l air; Type [1, 9]: Top; Volatility (μg/l air) [1, 10]: 17700.00 μg/l air; Odor Threshold ([2]; Table 9, gourmand note): 8.70E−02 μg/l air; Odor Threshold ([2]; Table 10, woody note): 8.70E−02 μg/l air; Odor Threshold (μg/l air) [2, 10]: 8.70E−02 μg/l air
CC(=O)OC(CC(C)C)CC(C)C [1-ISOBUTYL-3-METHYLBUTYL ACETATE] | – | – | – | – | 5265.61 | TOP (perfuming compounds having a volatility ranging from 70,000 to 100 μg/l in air are referred to as “top notes”) | Type [1, 9]: Top; Volatility (μg/l air) [1, 10]: 5265.61 μg/l air; Odor Threshold (μg/l air) [2, 10]: 1.62E+00 μg/l air
CCCCCCO [1-hexanol] | – | – | – | – | – | – | Type [1, 9]: Top; Volatility (μg/l air) [1, 10]: 2070.00 μg/l air; Odor Threshold (μg/l air) [2, 10]: 1.17E−01 μg/l air
C/C=C/c1ccc(OC)cc1 [1-methoxy-4-[(1E)-1-propen-1-yl]benzene] | 184.60 | Top | 1.23E−03 | 1.51E+05 | 184.60 | TOP (perfuming compounds having a volatility ranging from 70,000 to 100 μg/l in air are referred to as “top notes”) | Volatility ([1]; Table 9, gourmand note): 184.60 μg/l air; Type [1, 11]: Top; Odor Threshold ([2]; Table 9, gourmand note): 1.23E−03 μg/l air
CC1=CCC(C(C)C)=CC1 [1-methyl-4-(2-propanyl)-1,4-cyclohexadiene] | – | – | – | – | – | – | Volatility (μg/l air) ([1]; Table 7, citrus note): 4298.67 μg/l air; Type [1, 7]: Top; Odor Threshold (μg/l air) ([2]; Table 7, citrus note): 1.16E−01 μg/l air; Odor Value [2, 8]: 3.70E+04
O=C1CCC2(CCCCC2)O1 [1-oxaspiro[4.5]decan-2-one] | – | – | – | – | – | – | Volatility ([1]; Table 9, gourmand note): 62.86 μg/l air; Type [1, 11]: Middle; Odor Threshold ([2]; Table 9, gourmand note): 2.90E−04 μg/l air
CC(=O)c1ccccc1 [1-phenylethanone] | 1728.98 | Top | 6.61E−03 | 2.62E+05 | – | – | –
Cc1cnc(C)c(C)n1 [2,3,5-TRIMETHYLPYRAZINE] | 7897.31 | Top | 2.82E−04 | 2.80E+07 | – | – | –
COc1cccc(OC)c1O [2,6-DIMETHOXYPHENOL] | 19.23 | Bottom | 8.01E−06 | 2.40E+06 | – | – | Volatility ([1]; Table 9, gourmand note): 19.23 μg/l air; Type [1, 11]: Bottom; Odor Threshold ([2]; Table 9, gourmand note): 8.01E−06 μg/l air
Cc1ncsc1CCO [2-(4-METHYL-1,3-THIAZOL-5-YL)-1-ETHANOL] | 2.36 | Bottom | 2.43E−04 | 9.71E+03 | – | – | –
CC(=O)OCCC1CCCCC1 [2-CYCLOHEXYL ETHYL ACETATE] | 489.45 | Top | 4.49E−02 | 1.09E+04 | 489.45 | TOP (perfuming compounds having a volatility ranging from 70,000 to 100 μg/l in air are referred to as “top notes”) | –
CC(=O)OCCC1CCCCC1 [2-CYCLOHEXYLETHYL ACETATE] | – | – | – | – | – | – | Volatility ([1]; Table 9, gourmand note): 489.45 μg/l air; Type [1, 11]: Top; Odor Threshold ([2]; Table 9, gourmand note): 4.49E−02 μg/l air
CCOc1ccc2ccccc2c1 [2-ETHOXYNAPHTHALENE] | – | – | – | – | – | – | Volatility (μg/l air) ([1]; Table 7, citrus note): 22.67 μg/l air; Type [1, 7]: Bottom; Odor Threshold (μg/l air) ([2]; Table 7, citrus note): 3.57E−03 μg/l air; Odor Value [2, 8]: 6.35E+03
CCc1occc(=O)c1O [2-ETHYL-3-HYDROXY-4(4H)-PYRANONE] | 48.86 | Bottom | 6.45E−05 | 7.57E+05 | 48.86 | Bottom | Odor Threshold [2, 5]: 6.45E−05 μg/l air; Odor Value [2, 5]: 7.57E+05
CC1=C(O)C(=O)CC1 [2-HYDROXY-3-METHYL-2-CYCLOPENTEN-1-ONE] | 396.50 | Top | 3.82E−04 | 1.04E+06 | – | – | –
CC(C)Cc1ccc2ccccc2n1 [2-ISOBUTYLQUINOLINE] | 8.73 | Bottom | 1.93E−04 | 4.53E+04 | – | – | –
COc1cc(C)ccc1O [2-METHOXY-4-METHYLPHENOL] | 306.61 | Top | 6.96E−04 | 4.41E+05 | – | – | –
CCCC1CCC(O)C(OC)C1 (stereo not shown) [2-METHOXY-4-PROPYL-1-CYCLOHEXANOL] | – | – | – | – | – | – | Volatility (μg/l air) [1]: 189.74 μg/l air; Type [1, 9]: Top; Odor Threshold (μg/l air) [2, 10]: 2.85E−02 μg/l air
CCCC(=NO)C(C)C [2-METHYL-3-HEXANONE OXIME] | – | – | – | – | – | – | Type [1, 9]: Top; Volatility (μg/l air) [1, 10]: 687.75 μg/l air; Odor Threshold (μg/l air) [2, 10]: 4.81E−04 μg/l air
OCCc1ccccc1 [2-PHENYLETHANOL] | 159.75 | Top | 1.02E−04 | 1.56E+06 | 159.75 | TOP (perfuming compounds having a volatility ranging from 70,000 to 100 μg/l in air are referred to as “top notes”) | Volatility ([1]; Table 9, gourmand note): 159.75 μg/l air; Type [1, 11]: Top; Odor Threshold ([2]; Table 9, gourmand note): 1.02E−04 μg/l air
CC(=O)OCCc1ccccc1 [2-PHENYLETHYL ACETATE] | 201.26 | Top | 2.14E−03 | 9.38E+04 | 201.26 | TOP (perfuming compounds having a volatility ranging from 70,000 to 100 μg/l in air are referred to as “top notes”) | Volatility ([1]; Table 9, gourmand note): 201.26 μg/l air; Type [1, 11]: Top; Odor Threshold ([2]; Table 9, gourmand note): 2.14E−03 μg/l air
